Laboratory results from the supplement of paper PMC10331698.
± gives the standard deviation of the averaged measurements.

Legend:
Assay in all cases: level (log10 ratio to DMSO vehicle control); higher = higher biomarker level / cell amount than vehicle control
Perfluorononanoic acid = compound: O=C(O)C(F)(F)C(F)(F)C(F)(F)C(F)(F)C(F)(F)C(F)(F)C(F)(F)C(F)(F)F [Perfluorononanoic acid] (in DMSO)
Method: (§1)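 BioMAP Diversity Plus panel of 12 human primary cell co-culture systems (3C, 4H, LPS, SAg, BT, BF4T, BE3C, CASM3C, HDF3CGF, KF3CT, MyoF, Mphg). Compounds were added 1 h before stimulation and left for 24 h (MyoF 48 h; BT 72 h for soluble read-outs or 6 d for IgG). Biomarkers were read by ELISA, cytotoxicity by SRB, PBMC viability and proliferation by Alamar Blue. Each well value was divided by the mean of 8 DMSO control wells on the same plate and log10 transformed; duplicate blinded samples were tested at 4 concentrations.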

[1] = compound: O=C(O)CCC(F)(C(F)(F)F)C(F)(F)F [4,4-bis(Trifluoromethyl)-4-fluoropropanoic acid] (in DMSO)
Method: as §1

Octafluoroadipic acid = compound: O=C(O)C(F)(F)C(F)(F)C(F)(F)C(F)(F)C(=O)O [Octafluoroadipic acid] (in DMSO)
Method: as §1

[2] = compound: O=C(O)C(F)(F)OC(F)(F)C(F)(F)OC(F)(F)C(F)(F)OC(F)(F)C(F)(F)C(F)(F)C(F)(F)F [Perfluoro-3,6,9-trioxatridecanoic acid] (in DMSO); settings: 6700 nM
Method: as §1

[3] = compound: CCOC(=O)CC(=O)C(F)(F)C(F)(F)F [Ethyl pentafluoropropionyl acetate] (in DMSO)
Method: as §1

[4] = compound: NS(=O)(=O)C(F)(F)C(F)(F)C(F)(F)C(F)(F)C(F)(F)C(F)(F)C(F)(F)C(F)(F)F [Perfluorooctanesulfonamide] (in DMSO)
Method: as §1

[5] = compound: O=C(O)C(F)(OC(F)(F)C(F)(F)C(F)(F)F)C(F)(F)F [Ammonium perfluoro-2-methyl-3-oxahexanoate] (in Water)
Method: as §1

[6] = compound: O=S(=O)(O)CCC(F)(F)C(F)(F)C(F)(F)C(F)(F)C(F)(F)C(F)(F)C(F)(F)C(F)(F)F [8:2 Fluorotelomer sulfonic acid] (in DMSO)
Method: as §1

| Test System | level (log10) (Perfluorononanoic acid; 6700 nM) | level (log10) (Perfluorononanoic acid; 20000 nM) | level (log10) ([1]; 6700 nM) | level (log10) ([1]; 20000 nM) | level (log10) ([1]; 60000 nM) | level (log10) (Octafluoroadipic acid; 6700 nM) | level (log10) (Octafluoroadipic acid; 20000 nM) | level (log10) (Octafluoroadipic acid; 60000 nM) | level (log10) [2] | level (log10) ([3]; 6700 nM) | level (log10) ([3]; 20000 nM) | level (log10) ([3]; 60000 nM) | level (log10) ([4]; 6700 nM) | level (log10) ([4]; 20000 nM) | level (log10) ([5]; 6700 nM) | level (log10) ([5]; 20000 nM) | level (log10) ([5]; 60000 nM) | level (log10) ([6]; 6700 nM) | level (log10) ([6]; 20000 nM) | level (log10) ([6]; 60000 nM) |
| --- | --- | --- | --- | --- | --- | --- | --- | --- | --- | --- | --- | --- | --- | --- | --- | --- | --- | --- | --- | --- |
| BT:PBMC Cytotoxicity | -0.0065 ± 0.036 | 0.0515 ± 0.015 | 0.0145 ± 0.019 | -0.0095 ± 0.023 | -0.002 ± 0.057 | -0.0015 ± 0.029 | 0.001 ± 0.0014 | 0.0025 ± 0.019 | 0.0125 ± 0.0078 | -0.0045 ± 0.026 | 0.011 ± 0.0099 | -0.0095 ± 0.029 | 0.0175 ± 0.0064 | 0.03 ± 0.0099 | -0.083 ± 0.016 | -0.095 ± 0.0099 | -0.0905 ± 0.023 | 0.006 ± 0.018 | 0.0115 ± 0.005 | 0.0505 ± 0.018 |
| LPS:IL-1alpha | -0.0315 ± 0.0064 | -0.03 ± 0.014 | 0.009 ± 0.072 | 0.0215 ± 0.022 | 0.0215 ± 0.032 | -0.003 ± 0.0028 | 0.017 ± 0.045 | 0.029 ± 0.047 | -0.038 ± 0.013 | 0 ± 0.034 | -0.0335 ± 0.025 | 0.0115 ± 0.019 | -0.0195 ± 0.025 | -0.013 ± 0.0071 | 0.0325 ± 0.04 | 0.0475 ± 0.015 | 0.019 ± 0.062 | -0.0195 ± 0.03 | -0.016 ± 0.037 | -0.283 ± 0.19 |
| BF4T:MMP-9 | -0.034 ± 0.038 | -0.032 ± 0.0042 | 0.0265 ± 0.042 | 0.0145 ± 0.022 | 0.015 ± 0.042 | -0.0075 ± 0.047 | -0.0065 ± 0.036 | 0.0165 ± 0.026 | -0.106 ± 0.079 | 0.002 ± 0.038 | -0.007 ± 0.044 | -0.007 ± 0.044 | -0.006 ± 0.025 | -0.113 ± 0.018 | 0.0275 ± 0.005 | 0.047 ± 0.017 | 0.075 ± 0.013 | 0.0065 ± 0.015 | -0.003 ± 0.0014 | -0.0215 ± 0.005 |
| LPS:CD106/VCAM-1 | -0.017 ± 0.014 | -0.002 ± 0.0057 | -0.016 ± 0.034 | -0.0255 ± 0.0092 | -0.023 ± 0.021 | -0.0235 ± 0.037 | -0.0175 ± 0.025 | -0.017 ± 0.048 | 0.001 ± 0.016 | 0.004 ± 0.011 | -0.0105 ± 0.037 | -0.0135 ± 0.026 | 0.0075 ± 0.0035 | 0.0115 ± 0.016 | -0.0285 ± 0.016 | -0.016 ± 0.0071 | -0.0195 ± 0.011 | -0.0135 ± 0.073 | -0.021 ± 0.065 | -0.0535 ± 0.077 |
| BE3C:HLA-DR | -0.039 ± 0.064 | -0.066 ± 0.02 | -0.011 | -0.0125 ± 0.005 | 0.0065 ± 0.029 | 0 ± 0.021 | 0.0045 ± 0.018 | 0.012 ± 0.0028 | -0.8695 ± 0.0078 | 0.014 ± 0.023 | -0.006 ± 0.0014 | -0.0005 ± 0.005 | -0.0975 ± 0.013 | -0.136 ± 0.011 | -0.022 ± 0.013 | -0.0015 ± 0.018 | -0.0265 ± 0.0021 | -0.0175 ± 0.037 | -0.111 ± 0.005 | -0.255 ± 0.0014 |
| LPS:CD142/Tissue Factor | 0.01 ± 0.016 | -0.001 ± 0.02 | 0.045 ± 0.031 | 0.038 ± 0.059 | 0.02 ± 0.051 | -0.0105 ± 0.022 | 0.02 ± 0.034 | 0.0215 ± 0.0078 | -0.091 ± 0.021 | -0.01 ± 0.021 | -0.032 ± 0.028 | -0.002 ± 0.033 | -0.024 ± 0.047 | -0.043 ± 0.0071 | 0.0885 ± 0.064 | 0.0845 ± 0.028 | 0.075 ± 0.045 | 0.0005 ± 0.067 | 0.024 ± 0.088 | -0.0025 ± 0.011 |
| BE3C:CXCL9/MIG | -0.019 ± 0.013 | -0.0195 ± 0.0021 | -0.01 ± 0.014 | -0.0085 ± 0.022 | -0.0135 ± 0.016 | 0.0105 ± 0.013 | 0.012 | 0.0075 ± 0.016 | -1.19 ± 0.017 | 0.001 ± 0.0099 | 0.001 ± 0.0028 | 0.006 ± 0.0028 | -0.0015 ± 0.0021 | 0.013 ± 0.013 | 0.0065 ± 0.013 | 0.0045 ± 0.005 | 0 ± 0.0042 | -0.002 ± 0.0085 | -0.015 ± 0.0028 | -0.03 ± 0.011 |
| BT:sIL-2 | 0.0075 ± 0.039 | 0.0105 ± 0.011 | -0.0855 ± 0.13 | 0.02 ± 0.12 | 0.005 ± 0.2 | -0.006 ± 0.15 | -0.012 ± 0.021 | -0.0495 ± 0.061 | 0.0075 ± 0.016 | -0.058 ± 0.099 | -0.0055 ± 0.04 | -0.007 ± 0.069 | -0.0115 ± 0.049 | 0.0005 ± 0.028 | -0.093 ± 0.0099 | -0.0525 ± 0.015 | -0.124 ± 0.028 | -0.023 ± 0.073 | 0.0195 ± 0.057 | 0.009 ± 0.011 |
| SAg:PBMC Cytotoxicity | 0.006 ± 0.018 | 0.015 ± 0.013 | 0.004 ± 0.0042 | -0.0015 ± 0.0092 | 0.008 ± 0.027 | 0.0085 ± 0.0064 | -0.0165 ± 0.042 | 0.0155 ± 0.00071 | -0.003 ± 0.037 | -0.0055 ± 0.032 | -0.005 ± 0.025 | -0.0015 ± 0.021 | 0.009 ± 0.034 | 0.0315 ± 0.0064 | -0.011 ± 0.013 | -0.024 ± 0.013 | -0.0035 ± 0.0064 | -0.0125 ± 0.015 | 0 ± 0.0042 | 0.0075 ± 0.0021 |
| 3C:CXCL9/MIG | -0.0085 ± 0.0064 | 0.0045 ± 0.0064 | 0.006 ± 0.0071 | -0.0075 ± 0.0035 | 0.0015 ± 0.0064 | -0.002 ± 0.0028 | -0.0095 ± 0.015 | 0.006 ± 0.0085 | 0.0115 ± 0.00071 | 0.001 ± 0.0028 | -0.0015 ± 0.0092 | 0.0025 ± 0.0078 | 0.0225 ± 0.021 | 0.006 ± 0.028 | -0.0085 ± 0.011 | -0.003 ± 0.0099 | -0.004 | -0.004 ± 0.0014 | 0.004 ± 0.013 | -0.0045 ± 0.0035 |
| 4H:CCL26/Eotaxin-3 | -0.008 ± 0.0071 | -0.03 ± 0.018 | -0.0225 ± 0.0064 | 0.006 ± 0.033 | -0.0015 ± 0.049 | 0.022 ± 0.016 | 0.0185 ± 0.0092 | 0.016 ± 0.027 | -0.007 ± 0.038 | -0.007 ± 0.024 | 0.006 ± 0.0085 | -0.019 ± 0.018 | -0.0145 ± 0.013 | -0.03 ± 0.042 | -0.0615 ± 0.0021 | -0.064 ± 0.0014 | -0.118 ± 0.012 | 0.0095 ± 0.06 | -0.0325 ± 0.015 | -0.075 ± 0.0042 |
| SAg:SRB | -0.01 ± 0.0085 | -0.002 ± 0.0099 | -0.0035 ± 0.0078 | 0.006 ± 0.0042 | 0.003 ± 0.016 | -0.01 ± 0.016 | -0.008 ± 0.014 | -0.012 ± 0.0014 | 0.0015 ± 0.013 | 0 ± 0.0057 | 0.004 | -0.003 ± 0.02 | 0.0065 ± 0.005 | -0.0515 ± 0.0064 | -0.019 ± 0.0042 | -0.01 ± 0.0014 | -0.0285 ± 0.0021 | -0.0075 ± 0.0035 | -0.0095 ± 0.0035 | -0.0335 ± 0.011 |
| BT:B cell Proliferation | 0.0085 ± 0.0092 | 0.0365 ± 0.022 | 0.0195 ± 0.0035 | -0.0115 ± 0.035 | 0.0125 ± 0.0035 | -0.014 ± 0.0028 | -0.023 ± 0.016 | 0.005 ± 0.031 | 0.028 ± 0.02 | 0.012 ± 0.017 | -0.006 ± 0.011 | 0.0035 ± 0.022 | 0.0205 ± 0.0064 | 0.024 ± 0.028 | -0.239 ± 0.0085 | -0.256 ± 0.011 | -0.248 ± 0.0035 | 0.016 ± 0.016 | 0.0415 ± 0.005 | 0.0475 ± 0.033 |
